According to patent publication US20070155660A1, “Inhibition of voluntary ethanol consumption with selective melanocortin 4-receptor agonists” (priority 2003, published 2007):
Bridge positions count the residues as written; N and C are the ends. Square brackets hold non-standard residues; d marks the D form. Peptide text beside a SMILES is read from it. βAla = NCCC(=O)O

Legend:
[1] = target: T1, hMC-1R (Homo sapiens, UniProt Q01726); assay: cAMP assay in CHO cells expressing a human melanocortin receptor; assay type: cell-based
T1 construct: expressed in transfected cells; host or cells: Chinese hamster ovary (CHO) cells
T1 sequence (Q01726 whole entry): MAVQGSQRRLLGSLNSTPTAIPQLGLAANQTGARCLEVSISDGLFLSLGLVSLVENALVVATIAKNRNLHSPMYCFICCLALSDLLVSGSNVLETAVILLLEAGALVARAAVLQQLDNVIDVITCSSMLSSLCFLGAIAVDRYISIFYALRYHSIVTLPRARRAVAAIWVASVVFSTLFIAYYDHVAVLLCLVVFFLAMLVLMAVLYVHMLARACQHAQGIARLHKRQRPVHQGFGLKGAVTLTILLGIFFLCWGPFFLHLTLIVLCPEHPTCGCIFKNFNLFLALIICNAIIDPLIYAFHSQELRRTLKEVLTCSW
Description: (§1) Chinese hamster ovary cells expressing a human melanocortin receptor were rinsed with calcium-and magnesium-free PBS (Life Technologies), and detached from the tissue culture flasks by 5-minutes incubation with enzyme-free dissociation buffer (S-014-B, Specialty Media). Cells were collected by centrifugation and resuspended in Earle's balanced salt solution (Life Technologies) with addition of 10 mM 4-(2-hydroxyethyl)-1-piperazineethanesulfonic acid (Hepes) buffer, pH 7.5, 5 mM MgCl2, 1 mM glutamine, and 1 mg/ml bovine serum albumin to concentration of 1-5×10^6 cells/ml. Subsequently, cells were counted and the cell suspension was treated with the phosphodiesterase inhibitor 3-isobutyl-1-methylxanthine (to concentration of 0.6 mM).
(§2) A test compound was dissolved in dimethyl sulfoxide (DMSO, 10^−3 to 10^−8 M), diluted with buffer and 0.1 volume of the solution was added to 0.9 volumes of the cell suspension (1 to 5×10^5 cells); final concentration of DMSO was 1%. After 45 minutes at room temperature, cells were lysed by incubation at 100° C. for 5 minutes to release accumulated cAMP. Accumulation of cAMP was measured in an aliquot of the cell lysate with the Amersham (Arlington Heights, Ill.) cAMP detection assay kit (RPA556). The amount of cAMP produced in response to a tested compound was compared to the amount of cAMP produced in response to α-MSH, defined as a 100% agonist. […]

[2] = target: T2, hMC-3R (Homo sapiens, UniProt P41968); assay: as above; assay type: cell-based
T2 construct: expressed in transfected cells; host or cells: Chinese hamster ovary (CHO) cells
T2 sequence (P41968 whole entry): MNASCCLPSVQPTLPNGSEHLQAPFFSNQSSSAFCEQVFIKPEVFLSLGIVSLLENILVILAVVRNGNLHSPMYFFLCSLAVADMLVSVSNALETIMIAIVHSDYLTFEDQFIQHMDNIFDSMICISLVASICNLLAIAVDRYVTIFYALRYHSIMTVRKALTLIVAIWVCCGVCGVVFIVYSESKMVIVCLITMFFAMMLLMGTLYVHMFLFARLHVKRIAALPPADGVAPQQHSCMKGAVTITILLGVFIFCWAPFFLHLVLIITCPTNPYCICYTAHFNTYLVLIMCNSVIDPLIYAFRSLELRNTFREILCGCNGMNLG
Description: as §1, §2

[3] = target: T3, MC4R (Homo sapiens, UniProt P32245); assay: as above; assay type: cell-based; set-up: expressed in transfected cells; host or cells: Chinese hamster ovary (CHO) cells
T3 sequence (P32245 whole entry): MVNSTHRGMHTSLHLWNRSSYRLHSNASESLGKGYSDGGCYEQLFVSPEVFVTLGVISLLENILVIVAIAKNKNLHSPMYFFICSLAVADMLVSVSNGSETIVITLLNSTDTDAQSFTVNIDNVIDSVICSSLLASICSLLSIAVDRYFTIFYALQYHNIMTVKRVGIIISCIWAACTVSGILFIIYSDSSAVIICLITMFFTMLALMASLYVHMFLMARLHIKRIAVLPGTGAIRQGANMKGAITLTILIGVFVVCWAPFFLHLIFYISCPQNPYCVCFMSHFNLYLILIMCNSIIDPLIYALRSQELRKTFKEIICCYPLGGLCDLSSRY
Description: as §1
(§3) A test compound was dissolved in dimethyl sulfoxide (DMSO, 10^−3 to 10^−8 M), diluted with buffer and 0.1 volume of the solution was added to 0.9 volumes of the cell suspension (1 to 5×10^5 cells); final concentration of DMSO was 1%. After 45 minutes at room temperature, cells were lysed by incubation at 100° C. for 5 minutes to release accumulated cAMP. Accumulation of cAMP was measured in an aliquot of the cell lysate with the Amersham (Arlington Heights, Ill.) cAMP detection assay kit (RPA556). The amount of cAMP produced in response to a tested compound was compared to the amount of cAMP produced in response to α-MSH, defined as a 100% agonist. All active peptides were characterized in three independent experiments.

[4] = target: T4, MC5R (Homo sapiens, UniProt P33032); assay: as above; assay type: cell-based; set-up: expressed in transfected cells; host or cells: Chinese hamster ovary (CHO) cells
T4 sequence (P33032 whole entry): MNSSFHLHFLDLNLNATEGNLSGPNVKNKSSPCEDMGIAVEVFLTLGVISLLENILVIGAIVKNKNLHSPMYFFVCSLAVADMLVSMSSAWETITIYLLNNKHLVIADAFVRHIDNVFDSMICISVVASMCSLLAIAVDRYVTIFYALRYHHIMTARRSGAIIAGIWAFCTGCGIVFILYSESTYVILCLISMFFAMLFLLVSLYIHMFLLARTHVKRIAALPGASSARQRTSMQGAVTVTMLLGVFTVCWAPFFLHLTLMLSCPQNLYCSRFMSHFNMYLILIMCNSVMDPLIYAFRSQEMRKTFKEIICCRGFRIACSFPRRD
Description: as §1, §3

[5] = target: T2, hMC-3R; assay: Competitive binding assay, [125I]-NDP-α-MSH, CHO cell membranes; details: read-out: Binding Assay IC50 hMC-3R
Description: The peptides of the present invention were evaluated for […] in receptor binding assay. Crude membrane preparations were obtained from Chinese hamster ovary cells expressing human MC3, MC4, and MC5 receptors. Cells were rinsed with phosphate-buffered saline (PBS) lacking CaCl2 or MgCl2 (Life Technologies, Gaithersburg, Md., USA), and then detached with enzyme-free dissociation media (Specialty Media, Lavellette, N.J., USA). Cells were pelleted at 2800×g for 10 minutes and resuspended in membrane buffer (20 mM Tris, pH 7.2, 5 mM ethylenediaminetetraacetic acid) with 5 μg/ml leupeptin, 5 μg/ml aprotinin, 40 μg/ml bacitracin, and 25 μg/m pefabloc (Boehringer Mannheim). […]
Binding reactions (total volume=[…]) contained MBB (50 mM Tris, pH 7.2, 2 mM CaCl2, 1 mM MgCl2), 0.1% bovine serum albumin, crude membranes prepared from cells expressing human MC3, MC4, or MC5 receptor, 200 pM of [125I]-NDP-α-MSH (Amersham, Arlington Heighs, Ill., USA), and increasing concentrations of unlabeled test compounds dissolved in dimethylsulfoxide (final concentration=2%). […] Filters were washed 3 times with TNE buffer (50 mM Tris, pH 7.4, 5 mM ethylenediaminetetraacetic acid, 150 mM NaCl), dried and counted by using Microscint-20 in a Topcount scintillation counter (Packard). Nonspecific binding was determined in the presence of 2 μm of unlabeled NDP-α-MSH (Peninsula Laboratories). […]

[6] = target: T3, MC4R; assay: as above; set-up: expressed in transfected cells; host or cells: Chinese hamster ovary (CHO) cells
Description: (§4) The peptides of the present invention were evaluated for […] in receptor binding assay. Crude membrane preparations were obtained from Chinese hamster ovary cells expressing human MC3, MC4, and MC5 receptors. Cells were rinsed with phosphate-buffered saline (PBS) lacking CaCl2 or MgCl2 (Life Technologies, Gaithersburg, Md., USA), and then detached with enzyme-free dissociation media (Specialty Media, Lavellette, N.J., USA). Cells were pelleted at 2800×g for 10 minutes and resuspended in membrane buffer (20 mM Tris, pH 7.2, 5 mM ethylenediaminetetraacetic acid) with 5 μg/ml leupeptin, 5 μg/ml aprotinin, 40 μg/ml bacitracin, and 25 μg/m pefabloc (Boehringer Mannheim). The cells were […] with 10 strokes by using a motor-driven Teflon-coated pestle in a glass homogenizer at low speed. The resulting cell suspension was centrifuged at 4100×g, 4° C., for 20 minutes. The pellet was resuspended in fresh membrane buffer with protease inhibitors, aliquoted, snap-frozen in liquid nitrogen, and stored at −80° C. The resulting crude membranes were titrated to determine the optimal level necessary for performing binding studies. Results
(§5) Binding reactions (total volume=[…]) contained MBB (50 mM Tris, pH 7.2, 2 mM CaCl2, 1 mM MgCl2), 0.1% bovine serum albumin, crude membranes prepared from cells expressing human MC3, MC4, or MC5 receptor, 200 pM of [125I]-NDP-α-MSH (Amersham, Arlington Heighs, Ill., USA), and increasing concentrations of unlabeled test compounds dissolved in dimethylsulfoxide (final concentration=2%). Reactions were incubated for 1 hour without shaking and then filtered through 96-well filter plates (Packard), presoaked in 1% polyethyleneimine. Filters were washed 3 times with TNE buffer (50 mM Tris, pH 7.4, 5 mM ethylenediaminetetraacetic acid, 150 mM NaCl), dried and counted by using Microscint-20 in a Topcount scintillation counter (Packard). Nonspecific binding was determined in the presence of 2 μm of unlabeled NDP-α-MSH (Peninsula Laboratories). Active peptides were evaluated in three independent experiments.

[7] = target: T4, MC5R; assay: as above; set-up: expressed in transfected cells; host or cells: Chinese hamster ovary (CHO) cells; details: read-out: Binding Assay IC50 hMC-5R
Description: as §4, §5

EC50 [1]: 11 nM | EC50 [2]: 59 nM | EC50 [3]: 0.53 nM | Selectivity cAMP EC50 1R/4R ([3]; ratio of EC50 hMC-1R / hMC-4R): 20.75 | Selectivity cAMP EC50 3R/4R ([3]; ratio of EC50 hMC-3R / hMC-4R): 111 | Selectivity cAMP EC50 5R/4R ([3]; ratio of EC50 hMC-5R / hMC-4R): 3585 | EC50 [4]: 1900 nM | IC50 [5]: 490 nM | Selectivity Binding IC50 3R/4R ([6]; ratio of IC50 hMC-3R / hMC-4R): 122.5 | Selectivity Binding IC50 5R/4R ([6]; ratio of IC50 hMC-5R / hMC-4R): 1150 | IC50 ([6]; read-out: Binding Assay IC50 hMC-4R): 4 nM | IC50 [7]: 4600 nM
Structure (SMILES): N=C(N)NCCC[C@@H]1NC(=O)[C@@H](Cc2ccccc2)NC(=O)[C@H](Cc2c[nH]cn2)NC(=O)CCNC(=O)CC[C@@H](C(N)=O)NC(=O)[C@H](Cc2c[nH]c3ccccc23)NC1=O [Example 8] ([βAla]H[dF]RWE-NH2; lactam N-6 (inferred))
